Measurements from patent US20250206758A1, “SUBSTITUTED BRIDGED RING INHIBITOR, PREPARATION METHOD THEREFOR AND APPLICATION THEREOF” (SUZHOU ZELGEN BIOPHARMACEUTICALS CO., LTD., priority 2022, published 2025).
Where two headings read alike, the source gives them in different places.

Columns and labels:
[1] = test system: GP2D; assay: Cell proliferation inhibition, GP2D (CellTiter-Glo 3D, 7 days); assay type: cell-based
Procedure: (§1) • (a) Resuscitating cells in T75 cell culture flask: • (b) When the cell confluence reaches 80-90%, subculturing the cells.
(§2) The diluted test compound was added to a 384-well cell culture plate with a nanoliter pipetting system, and duplicate wells were set up. An equal volume of culture medium was added to the positive control group; and an equal volume of DMSO was added to the negative control group, then centrifugation was conducted at 1000 rpm for 1 min at room temperature.
(§3) Cells were inoculated into a) 384-well culture plate, with an equal volume of cells added to the negative control group, and only an equal volume of culture medium added to the positive control group. The plate was centrifuged at 1000 rpm for 1 min at room temperature, and the final DMSO concentration of the compound was 0.5% at last. The plate was placed in a 37° C., 5% CO2 constant temperature incubator for 7 days.
(§4) 20 μL/well of CellTiter-Glo® 3D to b) was added to 384-well cell culture plate, and the plate was shook at 320 rpm for 20 min in the dark, and incubated at room temperature in the dark for 2 hrs.
(§5) The luminescence value was read using an Envision multi-functional microplate reader.
(§6) The inhibition rate (IR) of the test compound was calculated using the following formula: IR (%)=(1−(RLU compound−RLU blank control)/(RLU meidum control−RLU blank control))*100%. The inhibition rates of different concentrations of compounds were calculated in Excel, and then the inhibition curves were plotted and the related parameters (including the minimum inhibition rate, maximum inhibition rate and IC50) were calculated using GraphPad Prism software.

[2] = test system: AsPC-1; assay: Cell proliferation inhibition, AsPC-1 (CellTiter-Glo 3D, 7 days); assay type: cell-based; details: AsPC-1, 7 days
Procedure: as §1, §2, §3, §4, §5, §6

Molecule | IC50 ([1]; 168 h) [nM] | IC50 ([2]; Homo sapiens, ASPC1, 168 h) [nM] | IC50 [1] [nM] | IC50 [2] [nM]
C#Cc1c(F)ccc2cc(O)cc(-c3ncc4c(N5C[C@H]6CC[C@@H](C5)N6)nc(OC[C@@]56C[C@@H](F)CN5C[C@@]5(CC5(F)F)C6)nc4c3F)c12 [Example 15C, 4-(4-((1R,5S)-3,8-diazabicyclo[3.2.1]octan-3-yl)-8-fluoro-2-(((1S,6′R,7a′R)-2,2,6′-trifluorodihydro-1′H,3′H-spiro[cyclopropan-1,2′-pyrrolizin]-7a′(5′H)-yl)methoxy)pyridino[4,3-d]pyrimidin-7-yl)-5-ethynyl-6-fluoronaphthalen-2-ol] | 12.1 | 60.6 |  | 
C#Cc1c(F)ccc2cc(O)cc(-c3ncc4c(N5C[C@H]6CC[C@@H](C5)N6)nc(OC[C@]56CCC7(CC7)N5C[C@@H](F)C6)nc4c3F)c12 (relative stereo) [Example 12A, 4-(4-((1R,5S)-3,8-diazabicyclo[3.2.1]octan-3-yl)-8-fluoro-2-(((trans)-6′-fluorotetrahydrospiro[cyclopropan-1,3′-pyrrolizin]-7a′(5′H)-yl)methoxy)pyridino[4,3-d]pyrimidin-7-yl)-5-ethynyl-6-fluoronaphthalen-2-ol] | 3.07 | 24.8 |  | 
CC(=O)Nc1cc(Cl)c(C(F)(F)F)c(-c2ncc3c(N4C[C@H]5CC[C@@H](C4)N5)nc(OC[C@@]45CCCN4C[C@@]4(CC4(F)F)C5)nc3c2F)c1 [Example 38, N-(3-(4-((1R,5S)-3,8-diazabicyclo[3.2.1]octan-3-yl)-2-(((1S,7a'S)-2,2-difluorodihydro-1′H,3′H-spiro[cyclopropan-1,2′-pyrrolizin]-7a′(5′H)-yl)methoxy)-8-fluoropyridino[4,3-d]pyrimidin-7-yl)-5-chloro-4-(trifluoromethyl)phenyl)acetamide] | 14.1 | 142 |  | 
Oc1cc(Cl)c(C(F)(F)F)c(-c2ncc3c(N4CC5CCC(C4)N5)nc(OC[C@@]45CCCN4C[C@@]4(CC4(F)F)C5)nc3c2F)c1 [Example 40] | 14 | 51.6 |  | 
N#Cc1c(N)sc2cc(F)cc(-c3ncc4c(N5C[C@H]6CC[C@@H](C5)N6)nc(OC[C@@]56CCCN5C[C@@]5(CC5(F)F)C6)nc4c3F)c12 [Example 32, 4-(4-((1R,5S)-3,8-diazabicyclo[3.2.1]octan-3-yl)-2-(((1S,7a'S)-2,2-difluorodihydro-1′H,3′H-spiro[cyclopropan-1,2′-pyrrolizin]-7a′(5′H)-yl)methoxy)-8-fluoropyridino[4,3-d]pyrimidin-7-yl)-2-amino-6-fluorobenzo[b]thiophen-3-carbonitrile] | 21 | 483 |  | 
Nc1cncc(-c2ncc3c(N4C[C@H]5CC[C@@H](C4)N5)nc(OC[C@@]45CCCN4C[C@@]4(CC4(F)F)C5)nc3c2F)c1C(F)(F)F [Example 53, 5-(4-((1R,5S)-3,8-diazabicyclo[3.2.1]octan-3-yl)-2-(((1S,7a'S)-2,2-difluorodihydro-1′H,3′H-spiro[cyclopropan-1,2′-pyrrolizin]-7a′(5′H)-yl)methoxy)-8-fluoropyridino[4,3-d]pyrimidin-7-yl)-4-(trifluoromethyl)pyridin-3-amine] | 60 | 896 |  | 
CCc1c(F)ccc2cc(O)cc(-c3ncc4c(N5CC6CCC(C5)N6)nc(OC[C@]56CCCN5C[C@]5(CC5(F)F)C6)nc4c3F)c12 [Example 17B] | 1.15 | 7.84 |  | 
C#Cc1c(F)ccc2cc(O)cc(-c3ncc4c(N5C[C@H]6CC[C@@H](C5)N6)nc(OC[C@@]56CCC7(CC7)N5C[C@@H](F)C6)nc4c3F)c12 (relative stereo) [Example 12B, 4-(4-((1R,5S)-3,8-diazabicyclo[3.2.1]octan-3-yl)-8-fluoro-2-(((cis)-6′-fluorotetrahydrospiro[cyclopropan-1,3′-pyrrolizin]-7a′(5′H)-yl)methoxy)pyridino[4,3-d]pyrimidin-7-yl)-5-ethynyl-6-fluoronaphthalen-2-ol] | 29.6 | 390 |  | 
N#Cc1c(-c2ncc3c(N4C[C@H]5CC[C@@H](C4)N5)nc(OC[C@@]45CCCN4C[C@@]4(CC4(F)F)C5)nc3c2F)cc(N)cc1C(F)(F)F [Example 50, 2-(4-((1R,5S)-3,8-diazabicyclo[3.2.1]octan-3-yl)-2-(((1S,7a'S)-2,2-difluorodihydro-1′H,3′H-spiro[cyclopropan-1,2′-pyrrolizin]-7a′(5′H)-yl)methoxy)-8-fluoropyridino[4,3-d]pyrimidin-7-yl)-4-amino-6-(trifluoromethyl)benzonitrile] | > 100 | > 1000 |  | 
C#Cc1c(F)ccc2cc(O)cc(-c3ncc4c(N5C[C@H]6CC[C@@H](C5)N6)nc(OC[C@@]56C[C@H](F)CN5C[C@@]5(CC5(F)F)C6)nc4c3F)c12 [Example 15G, 4-(4-((1R,5S)-3,8-diazabicyclo[3.2.1]octan-3-yl)-8-fluoro-2-(((1S,6'S,7a′R)-2,2,6′-trifluorodihydro-1′H,3′H-spiro[cyclopropan-1,2′-pyrrolizin]-7a′(5′H)-yl)methoxy)pyridino[4,3-d]pyrimidin-7-yl)-5-ethynyl-6-fluoronaphthalen-2-ol] | 39.1 | 329 |  | 
C#Cc1c(F)ccc2cc(O)cc(-c3ncc4c(N5C[C@H]6CC[C@@H](C5)N6)nc(OC[C@@]56C[C@@H](F)CN5C[C@]5(CC5(F)F)C6)nc4c3F)c12 [Example 15D, 4-(4-((1R,5S)-3,8-diazabicyclo[3.2.1]octan-3-yl)-8-fluoro-2-(((1R,6′R,7a′R)-2,2,6′-trifluorodihydro-1′H,3′H-spiro[cyclopropan-1,2′-pyrrolizin]-7a′(5′H)-yl)methoxy)pyridino[4,3-d]pyrimidin-7-yl)-5-ethynyl-6-fluoronaphthalen-2-ol] | 44.5 | 177 |  | 
CCc1c(F)ccc2cc(O)cc(-c3ncc4c(N5CC6CCC(C5)N6)nc(OC[C@@]56CCCN5C[C@@]5(CC5(F)F)C6)nc4c3F)c12 [Example 17A] | 0.26 | 1.07 |  | 
Nc1cc(Cl)c(Cl)c(-c2ncc3c(N4C[C@H]5CC[C@@H](C4)N5)nc(OC[C@@]45CCCN4C[C@@]4(CC4(F)F)C5)nc3c2F)c1 [Example 47, 3-(4-((1R,5S)-3,8-diazabicyclo[3.2.1]octan-3-yl)-2-(((1S,7a'S)-2,2-difluorodihydro-1′H,3′H-spiro[cyclopropan-1,2′-pyrrolizin]-7a′(5′H)-yl)methoxy)-8-fluoropyridino[4,3-d]pyrimidin-7-yl)-4,5-dichloroaniline] | 4.54 | 62.3 |  | 
C#Cc1c(F)ccc2cc(O)cc(-c3ncc4c(N5C[C@H]6CC[C@@H](C5)N6)nc(OC[C@@]56C[C@@H](F)CN5CC5(CC5)C6)nc4c3F)c12 [Example 10B, 4-(4-((1R,5S)-3,8-diazabicyclo[3.2.1]octan-3-yl)-8-fluoro-2-(((6′R,7a′R)-6′-fluorodihydro-1′H,3′H-spiro[cyclopropan-1,2′-pyrrolizin]-7a′(5′H)-yl)methoxy)pyridino[4,3-d]pyrimidin-7-yl)-5-ethynyl-6-fluoronaphthalen-2-ol] | 0.51 | 17.3 |  | 
COc1c(-c2cc(N)cc(Cl)c2C(F)(F)F)ncc2c(N3C[C@H]4CC[C@@H](C3)N4)nc(OC[C@@]34CCCN3C[C@@]3(CC3(F)F)C4)nc12 [Example 31, 3-(4-((1R,5S)-3,8-diazabicyclo[3.2.1]octan-3-yl)-2-(((1S,7a'S)-2,2-difluorodihydro-1′H,3′H-spiro[cyclopropan-1,2′-pyrrolizin]-7a′(5′H)-yl)methoxy)-8-methoxypyridino[4,3-d]pyrimidin-7-yl)-5-chloro-4-(trifluoromethyl)aniline] | 24.3 | 259 |  | 
Cc1cc(N)nc(-c2ncc3c(N4CC5CCC(C4)N5)nc(OC[C@@]45CCCN4C[C@@]4(CC4(F)F)C5)nc3c2F)c1C(F)(F)F [Example 18, 6-(4-((1R,5S)-3,8-diazabicyclo[3.2.1]octan-3-yl)-2-(((trans)-2,2-difluorodihydro-1′H,3′H-spiro[cyclopropan-1,2′-pyrrolizin]-7a′(5′H)-yl)methoxy)-8-fluoropyridino[4,3d]pyrimidin-7-yl)-4-methyl-5-(trifluoromethyl)pyridin-2-amine] | 9.83 | 307 |  | 
Cc1c(F)cc2[nH]ncc2c1-c1ncc2c(N3C[C@H]4CC[C@@H](C3)N4)nc(OC[C@@]34CCCN3C[C@@]3(CC3(F)F)C4)nc2c1F [Example 22, (1S,7a'S)-7a′-(((4-((1R,5S)-3,8-diazabicyclo[3.2.1]octan-3-yl)-8-fluoro-7-(6-fluoro-5-methyl-1H-indazol-4-yl)pyridino[4,3-d]pyrimidin-2-yl)oxy)methyl)-2,2-difluorodihydro-1′H,3′H-spiro[cyclopropan-1,2′-pyrrolizin]] | > 100 | > 1000 |  | 
(1S,7a'S)-7a′-(((4-(1R,5S)-3,8-diazabicyclo[3.2.1]octan-3-yl)-7-(8-ethynyl-7-fluoronaphthol-1-yl)-8-fluoropyridino[4,3-d]pyrimidin-2-yl)oxy)methyl)-2,2-difluorodihydro-1′H,3′H-spiro[cyclopropan-1,2′-pyrrolizin] [Example 21] |  |  | 4.92 | 19.1
